For orientation: IC50 means the midpoint of a concentration-inhibition curve. As a reminder, the EC50 is the concentration at which the effect is half-maximal.

The source of these data is ChEMBL document CHEMBL3879915, “Methods of inhibiting PRMT5” (2014).

For assay [1], the target named is PRMT5/MEP50 complex (Homo sapiens, UniProt O14744). Description: Inhibition of recombinant human fetal brain FLAG-tagged PRMT5/full length human testis 6His-tagged MEP50 expressed in baculovirus infected insect Sf9 cells using human histone H4 (1 to 15 residues) as substrate preincubated for 30 mins followed by [3H]-SAM addition.
Chain of PRMT5/MEP50 complex (O14744 whole entry, the tested form may be a part): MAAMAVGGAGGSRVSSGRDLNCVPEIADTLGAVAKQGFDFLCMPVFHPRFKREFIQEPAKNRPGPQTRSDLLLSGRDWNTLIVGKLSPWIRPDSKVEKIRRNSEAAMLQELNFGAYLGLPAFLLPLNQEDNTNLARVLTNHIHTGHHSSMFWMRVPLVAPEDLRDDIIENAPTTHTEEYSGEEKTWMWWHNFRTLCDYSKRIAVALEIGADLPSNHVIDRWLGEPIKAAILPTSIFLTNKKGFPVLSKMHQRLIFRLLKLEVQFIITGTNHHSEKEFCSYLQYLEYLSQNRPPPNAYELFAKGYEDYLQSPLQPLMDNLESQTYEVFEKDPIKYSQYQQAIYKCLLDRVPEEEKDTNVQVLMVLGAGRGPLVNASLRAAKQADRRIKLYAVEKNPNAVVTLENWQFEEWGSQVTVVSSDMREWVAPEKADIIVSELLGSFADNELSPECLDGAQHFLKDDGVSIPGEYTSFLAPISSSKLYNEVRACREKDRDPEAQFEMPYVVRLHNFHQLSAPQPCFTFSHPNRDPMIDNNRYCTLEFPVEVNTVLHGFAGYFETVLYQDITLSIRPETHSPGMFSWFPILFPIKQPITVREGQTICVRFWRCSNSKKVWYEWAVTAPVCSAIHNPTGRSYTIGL
Chain of PRMT5/MEP50 complex (Q9BQA1 whole entry, further chain, the tested form may be a part): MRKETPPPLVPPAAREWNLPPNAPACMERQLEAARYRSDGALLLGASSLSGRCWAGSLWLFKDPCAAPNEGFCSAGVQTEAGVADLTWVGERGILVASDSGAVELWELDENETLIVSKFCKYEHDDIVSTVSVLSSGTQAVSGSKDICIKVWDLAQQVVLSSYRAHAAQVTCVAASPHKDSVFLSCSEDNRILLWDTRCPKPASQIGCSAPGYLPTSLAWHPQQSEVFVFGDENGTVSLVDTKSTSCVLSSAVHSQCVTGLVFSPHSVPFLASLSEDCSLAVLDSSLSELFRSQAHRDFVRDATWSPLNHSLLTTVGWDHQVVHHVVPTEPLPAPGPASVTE
Assay [2] deals with Protein arginine N-methyltransferase 5 (Homo sapiens, UniProt O14744). As to the kind of experiment: Inhibition of PRMT5 in human Z138 cells assessed as decrease in di-methyl arginine levels after 96 hrs by Western blot method. Format: cell-based.
Chain of Protein arginine N-methyltransferase 5 (O14744 whole entry): as the sequence (O14744 whole entry, the tested form may be a part) above
Assay [3] can be described thus: Antiproliferative activity against human Z138 cells assessed as inhibition of cell viability after 5 days by Cell-Titer Glo assay. Format: functional, cell-based. The note with it: Z-138, 120 h.

In the case of `Cn1cnc2ccc(-c3ccnc(NC[C@H](O)CN4CCc5ccccc5C4)c3)cc21`, the IC50 in assay [1] is < 100 nM. Further, the figures for the 50% effective concentration (EC50) in assay [2] and in assay [3] were 101 to 1000 nM and 1000 to 10000 nM, respectively.
On the same counts, the results for `Cn1ncc2cnc(-c3cccc(OCC(O)CN4CCc5ccccc5C4)c3)cc21` (stereo unspecified) are 101 to 1000 nM, 101 to 1000 nM and 10000 to 40000 nM.
For `OC(CNc1cc(-c2ccc3ncn(C4COC4)c3c2)ccn1)CN1CCc2ccccc2C1` (stereo unspecified), in that order: < 100 nM, 101 to 1000 nM and 1000 to 10000 nM.
As for `C[C@@H](Oc1cccc2cccnc12)C(=O)NC[C@H](O)CN1Cc2ccccc2C1`, the half-inhibitory concentration (IC50) in assay [1] is < 100 nM. Also, the figures for the EC50 in assay [2] and in assay [3] were 101 to 1000 nM and 1000 to 10000 nM, respectively.
As for `Cc1ncc2ccc(-c3cccc(OCC(O)CN4CCc5ccccc5C4)c3)cn12` (stereo unspecified), the IC50 in assay [1] is < 100 nM. Besides, the EC50 in assay [2] and in assay [3] was 1000 to 10000 nM throughout.
As to `O=C(COc1cccc2cccnc12)NC[C@H](O)CN1Cc2ccccc2C1`, in assay [1], the IC50 was < 100 nM. The EC50 in assay [2] was 101 to 1000 nM; in assay [3], 1000 to 10000 nM.
Consider `Cn1cncc1C(=O)Nc1cccc(OC[C@H](O)CN2CCc3ccccc3C2)c1`, for which the IC50 in assay [1] was 101 to 1000 nM. Besides, the EC50 in assay [2] lay in the range of 101 to 1000 nM; in assay [3], 10000 to 40000 nM.
`CN1CCN(C(=O)Cn2ccc3cnc(-c4ccnc(NCC(O)CN5CCc6ccccc6C5)c4)nc32)CC1` (stereo unspecified): in assay [1], the IC50 is < 100 nM. Moreover, the EC50 is < 100 nM in assay [2] and 1000 to 10000 nM in assay [3].
For the compound `CN(C)S(=O)(=O)c1ccccc1OCC(=O)NCC(O)CN1Cc2ccccc2C1` (stereo unspecified), the IC50 in assay [1] was < 100 nM. The half-maximal effective concentration (EC50) lay within 101 to 1000 nM in assay [2] and 1000 to 10000 nM in assay [3].
For `O=C(COc1cccc2cccnc12)NCC(O)CN1Cc2ccccc2C1` (stereo unspecified), in that order: 101 to 1000 nM, 1000 to 10000 nM and > 20000 nM.
For `CN1CCC(n2cnc3ccc(-c4ccnc(NCC(O)CN5CCc6ccccc6C5)c4)cc32)C1` (stereo unspecified), in that order: < 100 nM, 101 to 1000 nM and 1000 to 10000 nM.
On the same counts, the results for `O[C@H](COc1cccc(-c2cccc3cccnc23)c1)CN1CCc2ccccc2C1` are 101 to 1000 nM, 1000 to 10000 nM and > 20000 nM.
Consider `Cn1cnc2ccc(-c3cc(NCC(O)CN4CCc5ccccc5C4)n[nH]3)cc21` (stereo unspecified), for which the half-maximal inhibitory concentration (IC50) in assay [1] is 101 to 1000 nM. Besides, the values for the EC50 in assay [2] and in assay [3] were 101 to 1000 nM and > 20000 nM, respectively.
For the compound `O=C(Cn1cnc2ccc(-c3cccc(OCC(O)CN4CCc5ccccc5C4)c3)cc21)N1CCCCC1` (stereo unspecified), the IC50 in assay [1] was 101 to 1000 nM. Further, the EC50 in assay [2] is 101 to 1000 nM; in assay [3] it was 10000 to 40000 nM.
As for `Cn1cc2ccc(-c3cccc(NCC(O)CN4CCc5ccccc5C4)c3)nc2n1` (stereo unspecified), the half-maximal inhibitory concentration (IC50) in assay [1] is < 100 nM. For the same compound, the half-maximal effective concentration (EC50) in assay [2] was 101 to 1000 nM; in assay [3], 10000 to 40000 nM.
On the same counts, the results for `O=C(Cn1ccc2cnc(-c3ccnc(NCC(O)CN4CCc5ccccc5C4)c3)nc21)N1CCCCC1` (stereo unspecified) are < 100 nM, < 100 nM and 101 to 1000 nM.
For `OC(CNc1cccc(-c2cccc3[nH]cnc23)c1)CN1CCc2ccccc2C1` (stereo unspecified), in that order: 101 to 1000 nM, 101 to 1000 nM and 10000 to 40000 nM.
For `CN1CCN(C(=O)Cn2ccc3cnc(-c4cccc(OCC(O)CN5CCc6ccccc6C5)c4)nc32)CC1` (stereo unspecified), in that order: 101 to 1000 nM, 101 to 1000 nM and 10000 to 40000 nM.
With `CNC(=O)Cn1ccc2cnc(-c3ccnc(NCC(O)CN4CCc5ccccc5C4)c3)nc21` (stereo unspecified), the half-inhibitory concentration (IC50) in assay [1] is < 100 nM. Besides, the 50% effective concentration (EC50) in assay [2] lay in the range of 101 to 1000 nM; in assay [3], 1000 to 10000 nM.
On the same counts, the results for `O[C@@H](COc1cccc(-c2cccc3cccnc23)c1)CN1CCc2ccccc2C1` are < 100 nM, 101 to 1000 nM and 1000 to 10000 nM.
In the case of `O=C(COc1ccccc1-c1cc[nH]n1)NCC(O)CN1Cc2ccccc2C1` (stereo unspecified), the IC50 in assay [1] lay within 101 to 1000 nM. The figures for the 50% effective concentration (EC50) in assay [2] and in assay [3] were 101 to 1000 nM and > 20000 nM, respectively.
With `Cn1cnc2ccc(-c3ccnc(NCC(O)CN4CCc5ccccc5C4)c3)nc21` (stereo unspecified), the half-inhibitory concentration (IC50) in assay [1] was < 100 nM. The figures for the concentration for a half-maximal effect (EC50) in assay [2] and in assay [3] were < 100 nM and 1000 to 10000 nM, respectively.
For `OC(CNc1cc(-c2ccc3ncn(C4CCNC4)c3c2)ccn1)CN1CCc2ccccc2C1` (stereo unspecified), the IC50 in assay [1] was < 100 nM. Moreover, the EC50 was in the range of 101 to 1000 nM in assay [2] and 1000 to 10000 nM in assay [3].
For `Cn1ccc2ccc(-c3cc(NCC(O)CN4CCc5ccccc5C4)ncn3)cc21` (stereo unspecified), in that order: 101 to 1000 nM, 101 to 1000 nM and 10000 to 40000 nM.
On the same counts, the results for `CC(=O)N1CCC(n2ccc3cnc(-c4ccnc(NCC(O)CN5CCc6ccccc6C5)c4)nc32)CC1` (stereo unspecified) are < 100 nM, < 100 nM and 101 to 1000 nM.
On the same counts, the results for `O=C(NCC(O)CN1Cc2ccccc2C1)c1cccc(-c2ccccn2)c1` (stereo unspecified) are 101 to 1000 nM, 1000 to 10000 nM and > 20000 nM.
For the compound `CNC(=O)Cn1cnc2ccc(-c3cccc(OCC(O)CN4CCc5ccccc5C4)c3)cc21` (stereo unspecified), in assay [1], the IC50 lay within 101 to 1000 nM. Further, the EC50 in assay [2] and in assay [3] was 1000 to 10000 nM each time.
In the case of `CC(=O)N(CC(O)CN1CCc2ccccc2C1)c1cccc(-c2ccc3ncn(C)c3c2)c1` (stereo unspecified), the half-maximal inhibitory concentration (IC50) in assay [1] was < 100 nM. Besides, the results for the EC50 in assay [2] and in assay [3] were 101 to 1000 nM and 10000 to 40000 nM, respectively.
Take `O=C(Cn1cnc2ccc(-c3cccc(OCC(O)CN4CCc5ccccc5C4)c3)cc21)N1CCCC1` (stereo unspecified): in assay [1], the 50% inhibitory concentration (IC50) was in the range of 101 to 1000 nM. In addition, the 50% effective concentration (EC50) in assay [2] fell in the range of 101 to 1000 nM; in assay [3], 10000 to 40000 nM.
On to `Cn1cnc2cc(-c3cc(NCC(O)CN4CCc5ccccc5C4)n[nH]3)ccc21` (stereo unspecified), for which, in assay [1], the IC50 was in the range of 101 to 1000 nM. Moreover, the values for the EC50 in assay [2] and in assay [3] were 101 to 1000 nM and 1000 to 10000 nM, respectively.
On to `Cn1cc2ccc(-c3ccnc(NCC(O)CN4CCc5ccccc5C4)c3)cc2n1` (stereo unspecified), for which the IC50 in assay [1] is < 100 nM. The half-maximal effective concentration (EC50) in assay [2] was in the range of 101 to 1000 nM; in assay [3] it was 1000 to 10000 nM.
For `O=C(Cn1ccc2cnc(-c3ccnc(NCC(O)CN4CCc5ccccc5C4)c3)nc21)N1CCOCC1` (stereo unspecified), in that order: < 100 nM, < 100 nM and 101 to 1000 nM.
For `OC(COc1cccc(-c2ncc3ccn(C4CCNCC4)c3n2)c1)CN1CCc2ccccc2C1` (stereo unspecified), in that order: < 100 nM, 101 to 1000 nM and 1000 to 10000 nM.
For `O=C(Cn1cnc2ccc(-c3cccc(OCC(O)CN4CCc5ccccc5C4)c3)cc21)N1CCOCC1` (stereo unspecified), the 50% inhibitory concentration (IC50) in assay [1] is 101 to 1000 nM. Further, the EC50 in assay [2] and in assay [3] was 1000 to 10000 nM each time.
Turning to `CN1CCN(C(=O)Cn2cnc3ccc(-c4cccc(OCC(O)CN5CCc6ccccc6C5)c4)cc32)CC1` (stereo unspecified), in assay [1], the IC50 lay within 101 to 1000 nM. Moreover, the EC50 in assay [2] was 101 to 1000 nM; in assay [3], 10000 to 40000 nM.
For `OC(COc1cccc(-c2ccc3ncn(C4COC4)c3c2)c1)CN1CCc2ccccc2C1` (stereo unspecified), the IC50 in assay [1] is < 100 nM. In addition, the EC50 was in the range of 101 to 1000 nM in assay [2] and 10000 to 40000 nM in assay [3].
For `O=C(Cn1ccc2cnc(-c3ccnc(NCC(O)CN4CCc5ccccc5C4)c3)nc21)N1CCCC1` (stereo unspecified), in that order: < 100 nM, < 100 nM and 1000 to 10000 nM.
For `OC(CNc1cc(-c2ncc3ccn(C4CCNCC4)c3n2)ccn1)CN1CCc2ccccc2C1` (stereo unspecified), in that order: < 100 nM, < 100 nM and 101 to 1000 nM.
For `OC(CNc1cc(-c2ccc3ncn(C4CCOCC4)c3c2)ccn1)CN1CCc2ccccc2C1` (stereo unspecified), in that order: < 100 nM, 101 to 1000 nM and 1000 to 10000 nM.
Turning to `CN1CCC(n2cnc3ccc(-c4ccnc(NCC(O)CN5CCc6ccccc6C5)c4)cc32)CC1` (stereo unspecified), the concentration for half-maximal inhibition (IC50) in assay [1] is < 100 nM. Besides, the concentration for a half-maximal effect (EC50) in assay [2] lay within 101 to 1000 nM; in assay [3] it was 1000 to 10000 nM.
On to `Cn1ccc2cnc(-c3ccnc(NCC(O)CN4CCc5ccccc5C4)c3)nc21` (stereo unspecified), for which the IC50 in assay [1] was < 100 nM. Moreover, the EC50 in assay [2] is < 100 nM; in assay [3] it was 1000 to 10000 nM.
As for `OC(CNc1cc(-c2ncc3ccn(C4CNC4)c3n2)ccn1)CN1CCc2ccccc2C1` (stereo unspecified), in assay [1], the half-maximal inhibitory concentration (IC50) is < 100 nM. The concentration for a half-maximal effect (EC50) in assay [2] was in the range of 101 to 1000 nM; in assay [3] it was 1000 to 10000 nM.
Consider `CC(=O)N1CCC(n2cnc3ccc(-c4ccnc(NCC(O)CN5CCc6ccccc6C5)c4)cc32)CC1` (stereo unspecified), for which the IC50 in assay [1] fell in the range of 101 to 1000 nM. Also, the concentration giving a half-maximal response (EC50) was in the range of 101 to 1000 nM in assay [2] and 1000 to 10000 nM in assay [3].
Take `OC(CNc1cc(-c2ccc3ncn(C4CCNCC4)c3c2)ccn1)CN1CCc2ccccc2C1` (stereo unspecified): the 50% inhibitory concentration (IC50) in assay [1] was < 100 nM. Also, the figures for the concentration giving a half-maximal response (EC50) in assay [2] and in assay [3] were 101 to 1000 nM and 1000 to 10000 nM, respectively.
On the same counts, the results for `CC(=O)N1CCC(n2ccc3cnc(-c4cccc(OCC(O)CN5CCc6ccccc6C5)c4)nc32)CC1` (stereo unspecified) are 101 to 1000 nM, 101 to 1000 nM and 1000 to 10000 nM.
On the same counts, the results for `C[C@H](Oc1cccc2cccnc12)C(=O)NC[C@@H](O)CN1Cc2ccccc2C1` are 101 to 10000 nM, 101 to 1000 nM and > 20000 nM.
On the same counts, the results for `Cn1cnc2ccc(-c3ccnc(NC[C@@H](O)CN4CCc5ccccc5C4)c3)cc21` are 101 to 1000 nM, 1000 to 10000 nM and 1000 to 10000 nM.
